# Data reported in patent publication US20260297081A1, “COMPOUNDS AND METHODS OF TREATING CANCERS” (Cullgen Inc., priority 2023, published 2026).
# What was measured:
# Assay type in all cases: cell-based
# [1] = tested on: Calu-1 cells; test: Anti-proliferation (viability) of NSCLC Calu-1 cells, 3 days (Table 7, FIG. 2B); details: Homo sapiens, 72 h; Calu-1 cells, 3 days, 10-point serial dilution; read-out: GI IC50 in Calu-1
# Method: To evaluate anti-proliferation activities of heterobifunctional compounds, NSCLC Calu-1 or ER+ breast cancer T47D cells were treated with selected heterobifunctional compounds following a 10-point serial dilution for 3 or 6 days, respectively.
# To verify that heterobifunctional compound-mediated degradation is dependent on the binding to CDK4-cyclin D complex, a negative control compound, CPD-143, which is derived from active heterobifunctional compound CPD-10 was designed. CPD-143 bears the same DDB1 ligand and linker as CPD-10 but with a modified warhead to impair the binding of the control compound to CDK4.
# [2] = tested on: MCF7 cells; test: Anti-proliferation (viability) of MCF7 cells (Table 7, FIG. 2B); details: Homo sapiens, MCF7, MCF7 cells, 3-6 days, 10-point serial dilution; read-out: GI IC50 in MCF-7
# [3] = biological target: CDK4 (Homo sapiens, UniProt P11802+Q16531); test: CDK4 percentage degradation in Calu-1 cells (Table 6); parameters: Cells that express cyclin D1-3 and CDK4/6 proteins were treated with heterobifunctional compounds; endogenous in cells; host or cells: Calu-1; details: 16 hours
# Chain of CDK4 (P11802 2-303 limits assumed): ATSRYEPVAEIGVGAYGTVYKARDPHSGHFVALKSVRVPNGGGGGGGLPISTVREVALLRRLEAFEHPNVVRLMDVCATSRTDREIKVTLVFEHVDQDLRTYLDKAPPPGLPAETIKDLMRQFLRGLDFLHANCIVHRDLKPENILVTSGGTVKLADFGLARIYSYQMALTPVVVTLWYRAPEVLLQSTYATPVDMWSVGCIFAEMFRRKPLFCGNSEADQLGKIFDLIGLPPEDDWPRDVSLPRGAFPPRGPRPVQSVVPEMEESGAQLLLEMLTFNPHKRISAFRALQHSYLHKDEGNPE
# Chain of CDK4 (P24385 whole entry partner): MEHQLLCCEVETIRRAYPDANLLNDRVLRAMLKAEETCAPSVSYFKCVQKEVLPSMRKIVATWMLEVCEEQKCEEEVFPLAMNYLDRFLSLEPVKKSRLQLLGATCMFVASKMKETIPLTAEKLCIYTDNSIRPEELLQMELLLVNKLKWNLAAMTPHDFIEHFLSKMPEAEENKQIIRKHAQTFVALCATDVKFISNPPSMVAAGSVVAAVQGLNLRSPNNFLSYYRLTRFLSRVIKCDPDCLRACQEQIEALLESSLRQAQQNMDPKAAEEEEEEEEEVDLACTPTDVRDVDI
# Chain of CDK4 (Q16531 2-1140 limits assumed): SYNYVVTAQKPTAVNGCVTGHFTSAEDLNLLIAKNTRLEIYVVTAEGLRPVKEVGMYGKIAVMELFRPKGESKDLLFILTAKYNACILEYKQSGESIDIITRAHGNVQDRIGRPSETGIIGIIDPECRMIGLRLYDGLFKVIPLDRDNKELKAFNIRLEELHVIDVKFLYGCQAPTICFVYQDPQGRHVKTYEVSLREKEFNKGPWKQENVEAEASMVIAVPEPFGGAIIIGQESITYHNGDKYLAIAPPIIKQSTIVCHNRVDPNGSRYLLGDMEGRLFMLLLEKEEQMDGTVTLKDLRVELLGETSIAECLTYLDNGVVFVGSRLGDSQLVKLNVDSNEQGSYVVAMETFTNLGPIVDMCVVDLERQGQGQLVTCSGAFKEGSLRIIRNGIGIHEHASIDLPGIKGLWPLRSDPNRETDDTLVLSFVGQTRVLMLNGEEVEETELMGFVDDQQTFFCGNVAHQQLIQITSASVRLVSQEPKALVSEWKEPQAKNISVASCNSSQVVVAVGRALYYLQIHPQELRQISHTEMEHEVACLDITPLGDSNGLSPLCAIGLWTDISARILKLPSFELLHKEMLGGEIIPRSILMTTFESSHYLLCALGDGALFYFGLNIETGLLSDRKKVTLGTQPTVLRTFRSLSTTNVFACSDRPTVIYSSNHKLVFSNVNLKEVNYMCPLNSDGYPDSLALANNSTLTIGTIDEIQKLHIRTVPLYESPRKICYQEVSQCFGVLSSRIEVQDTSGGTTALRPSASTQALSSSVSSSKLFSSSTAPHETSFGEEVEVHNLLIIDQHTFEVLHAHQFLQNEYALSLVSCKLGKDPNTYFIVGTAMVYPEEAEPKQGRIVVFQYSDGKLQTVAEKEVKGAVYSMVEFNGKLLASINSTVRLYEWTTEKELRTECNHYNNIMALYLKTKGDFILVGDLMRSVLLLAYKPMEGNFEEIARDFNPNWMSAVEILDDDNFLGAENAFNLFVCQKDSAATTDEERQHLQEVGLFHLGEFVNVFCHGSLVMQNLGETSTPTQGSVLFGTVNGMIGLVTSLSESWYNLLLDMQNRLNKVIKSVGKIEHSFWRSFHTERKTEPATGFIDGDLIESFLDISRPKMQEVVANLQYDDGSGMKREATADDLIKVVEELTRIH
# Outline: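 Calu-1 cells exposed to heterobifunctional compounds at 40 nM or 200 nM for 16 h. Cyclin D1 and CDK4 levels measured by Western blot of RIPA lysates (BCA-normalised loading), bands quantified by densitometry and expressed as percentage degradation.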
SMILES,IC50 [1] [nM],IC50 [2] [nM],inhibition at 0.04 µM ([3]; 40 nM) [%],inhibition at 0.2 µM ([3]; 200 nM) [%]
"CC(=O)c1c(C)c2cnc(Nc3ccc(N4CCN(C5CCN(C(=O)[C@H]6CC[C@H](Nc7nc(NC(C)C)ccc7-c7nc8cc(N(C)C)ccc8[nH]7)CC6)C5)CC4)cn3)nc2n(C2CCCC2)c1=O (relative stereo) [CPD-540, trans-6-acetyl-8-cyclopentyl-2-((5-(4-(1-(4-((3-(5-(dimethylamino)-1H-benzo[d]imidazol-2-yl)-6-(isopropylamino)pyridin-2-yl)amino)cyclohexane-1-carbonyl)pyrrolidin-3-yl)piperazin-1-yl)pyridin-2-yl)amino)-5-methylpyrido[2,3-d]pyrimidin-7(8H)-one]",≥ 50,> 100,,
"CC(=O)c1c(C)c2cnc(Nc3ccc(N4CCN(C5CCN(C(=O)[C@H]6CC[C@H](Nc7nc(NC(C)C)ccc7-c7nc8ccc(N(C)C)nc8[nH]7)CC6)C5)CC4)cn3)nc2n(C2CCCC2)c1=O (relative stereo) [CPD-546, trans-6-acetyl-8-cyclopentyl-2-((5-(4-(1-(4-((3-(5-(dimethylamino)-3H-imidazo[4,5-b]pyridin-2-yl)-6-(isopropylamino)pyridin-2-yl)amino)cyclohexane-1-carbonyl)pyrrolidin-3-yl)piperazin-1-yl)pyridin-2-yl)amino)-5-methylpyrido[2,3-d]pyrimidin-7(8H)-one]",≤ 10,< 50,,
"CC(=O)c1c(C)c2cnc(Nc3ccc(N4CCN(CCC(=O)N5CCC(Nc6nc(NC(C)C)ccc6C(=O)Nc6cn(C)c(C7CC7)n6)C5)CC4)cn3)nc2n(C2CCCC2)c1=O (stereo not drawn) [CPD-274, 2-((1-(3-(4-(6-((6-acetyl-8-cyclopentyl-5-methyl-7-oxo-7,8-dihydropyrido[2,3-d]pyrimidin-2-yl)amino)pyridin-3-yl)piperazin-1-yl)propanoyl)pyrrolidin-3-yl)amino)-N-(2-cyclopropyl-1-methyl-1H-imidazol-4-yl)-6-(isopropylamino)nicotinamide]",10 to 50,> 100,,
"CC(=O)c1c(C)c2cnc(Nc3ccc(N4CCN(C5CCN(C(=O)CN6CC7(CC(Nc8nc(NC(C)C)ccc8C(=O)Nc8ccc(N(C)C)nn8)C7)C6)C5)CC4)cn3)nc2n(C2CCCC2)c1=O (stereo not drawn) [CPD-518, 2-((2-(2-(3-(4-(6-((6-acetyl-8-cyclopentyl-5-methyl-7-oxo-7,8-dihydropyrido[2,3-d]pyrimidin-2-yl)amino)pyridin-3-yl)piperazin-1-yl)pyrrolidin-1-yl)-2-oxoethyl)-2-azaspiro[3.3]heptan-6-yl)amino)-N-(6-(dimethylamino)pyridazin-3-yl)-6-(isopropylamino)nicotinamide]",≤ 10,,,
"[2H]C([2H])([2H])Nc1ccc(C(=O)Nc2ccc(N(C)C)nn2)c(NC2CC3(C2)CN(C(=O)CN2CCC4(CCN(Cc5ccc(Nc6ncc7c(C)c(C(C)=O)c(=O)n(C8CCCC8)c7n6)nc5)C4)C2)C3)n1 (stereo not drawn) [CPD-519, 2-((2-(2-(7-((6-((6-acetyl-8-cyclopentyl-5-methyl-7-oxo-7,8-dihydropyrido[2,3-d]pyrimidin-2-yl)amino)pyridin-3-yl)methyl)-2,7-diazaspiro[4.4]nonan-2-yl)acetyl)-2-azaspiro[3.3]heptan-6-yl)amino)-N-(6-(dimethylamino)pyridazin-3-yl)-6-((methyl-d3)amino)nicotinamide]",≤ 10,,,
"[2H]C([2H])([2H])Nc1ccc(C(=O)Nc2cc3n(n2)CCC3)c(N[C@H]2CC[C@H](C(=O)N3CCC(N4CCN(c5ccc(Nc6ncc7c(C)c(C(C)=O)c(=O)n(C8CCCC8)c7n6)nc5)CC4)C3)CC2)n1 (stereo partly drawn) [CPD-521, 2-((trans-4-(3-(4-(6-((6-acetyl-8-cyclopentyl-5-methyl-7-oxo-7,8-dihydropyrido[2,3-d]pyrimidin-2-yl)amino)pyridin-3-yl)piperazin-1-yl)pyrrolidine-1-carbonyl)cyclohexyl)amino)-N-(5,6-dihydro-4H-pyrrolo[1,2-b]pyrazol-2-yl)-6-((methyl-d3)amino)nicotinamide]",10 to 50,,,
"COc1cccc(NC(=O)c2ccc(NC(C)C)nc2N[C@H]2CC[C@H](C(=O)N3CCC(N4CCN(c5ccc(Nc6ncc7c(C)c(C(C)=O)c(=O)n(C8CCCC8)c7n6)nc5)CC4)C3)CC2)n1 (stereo partly drawn) [CPD-522, 2-((trans-4-(3-(4-(6-((6-acetyl-8-cyclopentyl-5-methyl-7-oxo-7,8-dihydropyrido[2,3-d]pyrimidin-2-yl)amino)pyridin-3-yl)piperazin-1-yl)pyrrolidine-1-carbonyl)cyclohexyl)amino)-6-(isopropylamino)-N-(6-methoxypyridin-2-yl)nicotinamide]",≤ 10,,,
"[2H]C([2H])([2H])Nc1ccc(C(=O)Nc2cccc(OC)n2)c(N[C@H]2CC[C@H](C(=O)N3CCC(N4CCN(c5ccc(Nc6ncc7c(C)c(C(C)=O)c(=O)n(C8CCCC8)c7n6)nc5)CC4)C3)CC2)n1 (stereo partly drawn) [CPD-523, 2-((trans-4-(3-(4-(6-((6-acetyl-8-cyclopentyl-5-methyl-7-oxo-7,8-dihydropyrido[2,3-d]pyrimidin-2-yl)amino)pyridin-3-yl)piperazin-1-yl)pyrrolidine-1-carbonyl)cyclohexyl)amino)-N-(6-methoxypyridin-2-yl)-6-((methyl-d3)amino)nicotinamide]",≥ 50,,,
"[2H]C([2H])([2H])Nc1ccc(C(=O)Nc2cc3n(n2)CCC3)c(NC2CC3(C2)CN(C(=O)CC(N2CCN(c4ccc(Nc5ncc6c(C)c(C(C)=O)c(=O)n(C7CCCC7)c6n5)nc4)CC2)C(F)(F)F)C3)n1 (stereo not drawn) [CPD-524, 2-((2-(3-(4-(6-((6-acetyl-8-cyclopentyl-5-methyl-7-oxo-7,8-dihydropyrido[2,3-d]pyrimidin-2-yl)amino)pyridin-3-yl)piperazin-1-yl)-4,4,4-trifluorobutanoyl)-2-azaspiro[3.3]heptan-6-yl)amino)-N-(5,6-dihydro-4H-pyrrolo[1,2-b]pyrazol-2-yl)-6-((methyl-d3)amino)nicotinamide]",≤ 10,,,
"CC(=O)c1c(C)c2cnc(Nc3ccc(N4CCN(C5CCN(C(=O)[C@H]6CC[C@H](Nc7cc(NC(C)C)ccc7C(=O)Nc7ccc(N(C)C)nn7)CC6)C5)CC4)cn3)nc2n(C2CCCC2)c1=O (stereo partly drawn) [CPD-527, 2-((trans-4-(3-(4-(6-((6-acetyl-8-cyclopentyl-5-methyl-7-oxo-7,8-dihydropyrido[2,3-d]pyrimidin-2-yl)amino)pyridin-3-yl)piperazin-1-yl)pyrrolidine-1-carbonyl)cyclohexyl)amino)-N-(6-(dimethylamino)pyridazin-3-yl)-4-(isopropylamino)benzamide]",≤ 10,,,

# The next lines start with the values.
IC50 [1] [nM],IC50 [2] [nM],inhibition at 0.04 µM ([3]; 40 nM) [%],inhibition at 0.2 µM ([3]; 200 nM) [%],SMILES
10 to 50,,50 to 80,> 80,"CNc1ccc(C(=O)Nc2ccn(C)n2)c(NC2CC3(C2)CN(C(=O)CCN2CCN(c4ccc(Nc5ncc6c(C)c(C(C)=O)c(=O)n(C7CCCC7)c6n5)nc4)CC2)C3)n1 [CPD-144, 2-((2-(3-(4-(6-((6-acetyl-8-cyclopentyl-5-methyl-7-oxo-7,8-dihydropyrido[2,3-d]pyrimidin-2-yl)amino)pyridin-3-yl)piperazin-1-y)propanoyl)-2-azaspiro[3.3]heptan-6-yl)amino)-N-(1-methyl-1H-pyrazol-3-yl)-6-(methylamino)nicotinamide]"
≥ 50,> 100,,,"[2H]C([2H])([2H])Nc1ccc(C(=O)Nc2cccc(C)n2)c(NC2CCN(C(=O)CN3CCN(c4ccc(Nc5ncc6c(C)c(C(C)=O)c(=O)n(C7CCCC7)c6n5)nc4)CC3)CC2)n1 [CPD-270, 2-((1-(2-(4-(6-((6-acetyl-8-cyclopentyl-5-methyl-7-oxo-7,8-dihydropyrido[2,3-d]pyrimidin-2-yl)amino)pyridin-3-yl)piperazin-1-yl)acetyl)piperidin-4-yl)amino)-6-((methyl-d3)amino)-N-(6-methylpyridin-2-yl)nicotinamide]"
≥ 50,> 100,,,"CNc1ccc(C(=O)Nc2ccc(N(C)C)nn2)c(NC2CCC(CNC(=O)CN3CCN(c4ccc(Nc5ncc6c(C)c(C(C)=O)c(=O)n(C7CCCC7)c6n5)nc4)CC3)C2)n1 (stereo not drawn) [CPD-271, 2-((3-((2-(4-(6-((6-acetyl-8-cyclopentyl-5-methyl-7-oxo-7,8-dihydropyrido[2,3-d]pyrimidin-2-yl)amino)pyridin-3-yl)piperazin-1-yl)acetamido)methyl)cyclopentyl)amino)-N-(6-(dimethylamino)pyridazin-3-yl)-6-(methylamino)nicotinamide]"
≤ 10,< 50,,,"CC(=O)c1c(C)c2cnc(Nc3ccc(N4CCN(CC(=O)NC5CC6(C5)CC(Nc5nc(NC(C)C)ccc5C(=O)Nc5ccc(N(C)C)nn5)C6)CC4)cn3)nc2n(C2CCCC2)c1=O (stereo not drawn) [CPD-272, 2-((6-(2-(4-(6-((6-acetyl-8-cyclopentyl-5-methyl-7-oxo-7,8-dihydropyrido[2,3-d]pyrimidin-2-yl)amino)pyridin-3-yl)piperazin-1-yl)acetamido)spiro[3.3]heptan-2-yl)amino)-N-(6-(dimethylamino)pyridazin-3-yl)-6-(isopropylamino)nicotinamide]"
≥ 50,> 100,,,"[2H]C([2H])([2H])Nc1ccc(C(=O)Nc2cn(C)c(C3CC3)n2)c(NC2CCN(C(=O)CCN3CCN(c4ccc(Nc5ncc6c(C)c(C(C)=O)c(=O)n(C7CCCC7)c6n5)nc4)CC3)C2)n1 (stereo not drawn) [CPD-273, 2-((1-(3-(4-(6-((6-acetyl-8-cyclopentyl-5-methyl-7-oxo-7,8-dihydropyrido[2,3-d]pyrimidin-2-yl)amino)pyridin-3-yl)piperazin-1-yl)propanoyl)pyrrolidin-3-yl)amino)-N-(2-cyclopropyl-1-methyl-1H-imidazol-4-yl)-6-((methyl-d3)amino)nicotinamide]"
